The source of these data is article PMC12519234 (2025).

Experiment [1] concerns Tte preQ1 U22Ap (RNA, riboswitch, 2-aminopurine at 22 (replaces U)) CUGGGUCGCAGUAACCCCAGUUAACAAAACAAG
In words: stopped-flow 2-aminopurine fluorescence; koff = kon × KD. The note with it: 100 mM KCl, 2 mM MgCl2; 50 mM MOPS pH 7.5, 25 °C; calculated, one approximate value for preQ1 and 4a.

Experiment [2] shares this test system. In words: 2-aminopurine fluorescence titration. The conditions noted are these: 100 mM KCl, 2 mM MgCl2; 50 mM MOPS pH 7.5, 25 °C, 0.5 µM RNA.
Experiment [3] has as its system queT (41 nt) (RNA, riboswitch) ACGUGGUUCAUUCAUACCAUCCCACGUAAAAAAACUAGGAG
Briefly: 1H NMR imino spectra. The conditions noted are these: 25 mM NaCl, 2 mM MgCl2; 15 mM sodium cacodylate pH 6.5, 25 °C, 0.15 mM RNA.

Experiment [4] concerns preQ1-like (40 nt, lmo2684 upstream region) (RNA, mRNA element) UACAGCUAGCUAGCUGAAAAUUAUAAAAAACUAAAGAGGU
Briefly: 1H NMR imino spectra. The conditions noted are these: 25 mM NaCl, 2 mM MgCl2; 15 mM sodium cacodylate pH 6.5, 25 °C, 0.15 mM RNA; no high affinity association.

For experiment [5], the system named is Tte preQ1 U22Ap (RNA, riboswitch, 2-aminopurine at 22 (replaces U)) CUGGGUCGCAGUAACCCCAGUUAACAAAACAAG
Briefly: stopped-flow 2-aminopurine fluorescence. The note with it: 100 mM KCl, 2 mM MgCl2; 50 mM MOPS pH 7.5, 25 °C.

Take `NCc1c[nH]c2nc(N)[nH]c(=O)c12`: the koff in experiment [1] was ~ 7.5 × 10^−4 s^−1. Also, the “KD(preQ1)” value in experiment [2] came out at 0.064 µM. Also, the binding entry in experiment [3] is on record as “yes”; in experiment [4], “no”. For the same compound, the “kon(preQ1)” value in experiment [5] is 13000 M⁻¹ s⁻¹.
